Results as given in the supplement of paper PMC10307832.

Columns and labels:
Assay in all cases: relative viability (nuclei count vs DMSO), 5 days (fraction); higher = more cells survive
[1] = compound: C=CCNC1=C2C[C@@H](C)C[C@H](OC)[C@H](O)[C@@H](C)/C=C(\C)[C@H](OC(N)=O)[C@@H](OC)/C=C\C=C(/C)C(=O)NC(=CC1=O)C2=O [17-AAG]
Procedure, shortened: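 In 1536-well plates, lung cancer cell lines rested overnight at 37 °C before five library-drug doses (not always all listed), √10 apart, were pinned onto vehicle-anchored plates. Nuclei were counted with MetaXpress from 4× Hoechst images taken after 5 days without medium change. Viability compares treated-well with vehicle-well nuclei as a median over plates, and plates needed control CV below 25% plus at least one doubling to pass.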

[2] = compound: C=CCNC1=C2C[C@@H](C)C[C@H](OC)[C@H](O)[C@@H](C)/C=C(\C)[C@H](OC(N)=O)[C@@H](OC)/C=C\C=C(/C)C(=O)NC(=CC1=O)C2=O [17-AAG] + CC(=O)Nc1cccc(-n2c(=O)n(C3CC3)c(=O)c3c(Nc4ccc(I)cc4F)n(C)c(=O)c(C)c32)c1 [Trametinib] (partner 0.02 µM)
Procedure, shortened: (§1)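 Nuclei were stained with Hoechst during a one-step fixation (final 0.05% Triton X-100, 1% formaldehyde, 1 ug/ml Hoechst) carried out 5 days after dosing, then counted on 4× images. The cells, lung cancer lines in 1536-well plates, had been dosed by pin tool the day after seeding with one drug alone or a fixed anchor-drug dose plus five library-drug doses (not always all listed) in √10 steps. Relative viability is the nuclei count in treated wells divided by that in vehicle wells, and each value is the median of duplicate plates.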

[3] = compound: C=CCNC1=C2C[C@@H](C)C[C@H](OC)[C@H](O)[C@@H](C)/C=C(\C)[C@H](OC(N)=O)[C@@H](OC)/C=C\C=C(/C)C(=O)NC(=CC1=O)C2=O [17-AAG] + COc1cccc2cc(-c3nc([C@H]4CC[C@H](C(=O)O)CC4)n4ncnc(N)c34)[nH]c12 [OSI-027] (partner 0.5 µM)
Procedure, shortened: as §1

[4] = compound: C=CCNC1=C2C[C@@H](C)C[C@H](OC)[C@H](O)[C@@H](C)/C=C(\C)[C@H](OC(N)=O)[C@@H](OC)/C=C\C=C(/C)C(=O)NC(=CC1=O)C2=O [17-AAG] + N=C(N)NC(=N)NCCc1ccccc1 [Phenformin] (partner 250 µM)
Procedure, shortened: as §1

Row | Cell Line | relative viability ([1]; 0.00128 µM) | relative viability ([1]; 0.004048 µM) | relative viability ([1]; 0.0128 µM) | relative viability ([1]; 0.04048 µM) | relative viability ([1]; 0.128 µM) | relative viability ([2]; first compound 0.00128 µM) | relative viability ([2]; first compound 0.004048 µM) | relative viability ([2]; first compound 0.0128 µM) | relative viability ([2]; first compound 0.04048 µM) | relative viability ([2]; first compound 0.128 µM) | relative viability ([3]; first compound 0.00128 µM) | relative viability ([3]; first compound 0.004048 µM) | relative viability ([3]; first compound 0.0128 µM) | relative viability ([3]; first compound 0.04048 µM) | relative viability ([3]; first compound 0.128 µM) | relative viability ([4]; first compound 0.00128 µM) | relative viability ([4]; first compound 0.004048 µM) | relative viability ([4]; first compound 0.0128 µM) | relative viability ([4]; first compound 0.04048 µM) | relative viability ([4]; first compound 0.128 µM)
1 | NCI-H2126 | 1.01 | 0.995 | 0.957 | 0.435 | 0.26 | 0.576 | 0.568 | 0.625 | 0.594 | 0.443 | 0.778 | 0.758 | 0.479 | 0.231 | 0.291 | 0.576 | 0.563 | 0.305 | 0.289 | 0.271
2 | NCI-H2170 | 1.01 | 0.973 | 0.605 | 0.178 | 0.168 | 0.958 | 0.843 | 0.91 | 0.402 | 0.134 | 0.652 | 0.585 | 0.385 | 0.187 | 0.118 | 0.408 | 0.453 | 0.297 | 0.163 | 0.135
3 | NCI-H2228 | 1.08 | 0.72 | 0.125 | 0.112 | 0.152 | 0.378 | 0.232 | 0.102 | 0.113 | 0.144 | 0.583 | 0.265 | 0.104 | 0.0876 | 0.0979 | 0.337 | 0.185 | 0.0958 | 0.099 | 0.0688
